Experimental data from US5491220A, “Surface loop structural analogues of fibroblast growth factors” (Yeda Research and Development Co., Ltd., priority 1994, dated 1996).

What was measured:
[1] = system: ABAE cells; assay: In vitro angiogenesis: capillary-like tube formation by ABAE cells on collagen gel; type: cell-based, bovine; settings: ABAE cells on type I collagen gel, 48 hours; compared with wild-type FGF-2
Description: In vitro anglogenesis evaluations are made by observing whether the mutants induce capillary-like structures in ABAE cells cultured on a 3-dimensionalcollagen gel. Three-dimensional collagen gel plates (24-well) are prepared by adding 0.5 ml chilled solution of 0.7 mg/ml rat-tail type I collagen (Becton Dickinson Labwares, Bedford, Mass.) containing DMEM and adjusting to neutral pH with NaHCO3 to each well. After formation of collagen gel (about 1-2 mm thickness), ABAE cells are seeded at 50,000 cells/well. The cultures are maintained at 37° C. in DMEM containing 10% calf serum (Hyclone, Logan, Utah) supplemented with penicillin (100 units/ml), streptomycin (100 μg/ml) and L-glutamine (2 mM) until the cultures reach confluency, usually in 5 days by which time the cells form a monolayer on the gel. The medium is then replaced with fresh medium containing different concentrations of FGF-2 or mutants. […]
The abundance of the capillary-like structures formed by ABAE cells is analyzed by using a Kontron IBAS Image Analyzer assisted with a Hamamatsu C2400 video camera and a Zeiss Axioshop microscope. […] The extent of in vitro angiogenesis is then measured as a percentage of the white areas. […] Three to four areas of each well are examined by image analysis and the mean value and standard deviation are determined. […]

[2] = system: FGFR2(IIIb) (FGF-7 or KGF receptor); assay: Competition binding to soluble FGFR2(IIIb) (displacement of 125I-FGF-7); parameters: species or system murine
Description: Binding of FGF proteins to different FGF receptors are determined in this example, by measuring the degree of competition for binding to different types of FGF-receptor proteins between a radioiodinated FGF protein and various unlabelled proteins, or by the direct binding of radioiodinated FGF's to various receptor proteins. Binding studies are confirmed by chemical cross-linking of the radioiodinated FGF to soluble receptors in the presence and absence of excess unlabelled FGF.
Soluble FGF receptor proteins are constructed by cloning of the extracellular region of murine FGF receptor 1 (FGFR-1; flg), FGF receptor 2 (FGFR-2; bek) or the KGF receptor (FGFR(IIIb); K-sam) into the alkaline phosphatase-tag expression vector, which encodes for a secreted form of placental alkaline phosphatase (AP). The FGF receptor alkaline phosphatase (FRAP) plasmids are cotransfected into NIH 3T3 cells by electroporation with a selectable neomycin resistance gene. Clonies are selected in G418 (600 μg/ml) and screened for secreted AP enzyme activity in the conditioned medium. Clones of each receptor which produced a high level of AP activity (2 to 4 A405 units/min/ml) are then used to produce conditioned medium for binding assays.
Components of the soluble receptor binding reaction mixture include FRAP-conditioned medium (0.24 OD units/min), 2 ng/ml^125 I-FGFs and 200 ng/ml heparin. The FGF:heparin:FRAP terniary complex is immunoprecipitated with 20 μl of a 1:1 slurry of anti-AP monoclonal antibodies coupled to protein A Sepharose®. All components are mixed at room temperature. The total volume is adjusted to 200 μl by addition of DMEM containing 0.1% bovine serum albumin. Binding is allowed to proceed for 1 to 2 hours at 24° C., after which time bound receptor complex or the ligand is recovered by centrifugation at 4° C. (10 s at 2,000×g). The pelleted material is washed twice with 500 μl of an ice cold buffer containing HEPES (20 mM), NaCl (150 mM), glycerol (10%) and Triton® X-100 (1%). ^125 I-FGF binding is quantitated by counting of the samples in a gamma counter (LKB). Alternatively, AP enzyme activity of the FRAP protein is determined by transferring the FRAP receptor bound to […] to a flat-bottom microtiter plate in a volume of 50 μl of PBS. The reaction is initiated by addition of substrate (50 μl of 2× solution of AP assay buffer containing 2M diethanoiamine, 1 mM MgCl2, 20 mM homoarginine and 12 mM p-nitrophenyl phosphate). The reaction is followed at room temperature at 405 nm in a kinetic microplate reader.

[3] = system: FGF receptor type 1 (FGFR1); assay: Competition binding to FGF-receptor type 1 on NIH 3T3 cells; settings: compared with FGF-2
[4] = Affinity for immobilized heparin (NaCl elution from heparin column); type: binding; settings: TSK-heparin column
Description: Cells from 1 liter cultures are harvested by centrifugation, resuspended in 30 ml of 50 mM Tris-HCl, pH 7.5 containing 0.1 mM EDTA and 0.6M NaCl, and disrupted by treatment with lysozyme (10 μg/ml) for 20 min at 4° C. followed by sonication (6×30 sec pulses). The lysates are clarified by centrifugation (10,000×g; 20 min) and the supernatant solutions incubated with 5 ml of hydrated heparin Sepharose (Pharmacia/LKB) at 4° C. for 1 hour with constant rotation. The resin is isolated by filtration on 0.8 μm filter apparatus (Nalgene), washed extensively with 10 mM Tris-HCl pH 7.4 containing 0.6M NaCl and bound protein eluted with Tris buffer containing 3M NaCl (25 ml). The 3M NaCl eluent is diluted 6-fold with Tris buffer and loaded onto a TSK heparin 5PW column (0.21×15 cm; The Nest Group, MA) and the column developed using a linear NaCl gradient (0.6 to 2M) in 90 min at a flow rate of […].
NaCl elution from heparin-Sepharose® is about 0.7M NaCl, compared with 1.4M NaCl for the wild-type protein. The molarity of NaCl required to elute the LK mutant is similar to that required to elute FGF-7.

[5] = system: FGF receptor on BHK cells; assay: Competition for 125I-FGF-2 binding to baby hamster kidney (BHK) cells; settings: 50 pM 125I-FGF-2; compared with FGF-2
Description: FGF-2LI and FGF-2LA are tested for their capacity to compete for the binding of ^125 I-FGF-2 (Amersham Corp.) to baby hamster kidney (BHK) cells, which express high numbers of FGF receptor. The assay employed is described by Moscatelli (J. Cell. Physiol. 131: 123-130 (1987)). Briefly stated, BHK cells plated on 24-well plates are incubated with 50 pM ^125 I-FGF-2 with serial dilutions of unlabelled FGF-2, FGF-2LI or FGF-2LA loop mutants at room temperature for 1 hour or at 4° C. for 2 hours. The cells are then incubated at 4° C. for 30 minutes, washed twice with phosphate-buffered saline and treated with 20 mM HEPES (N-2-hydroxyethyl-piperazine-N'-2-ethanesulfonic acid), pH 7.5, containing 2M NaCl to remove ^125 I-FGF-2 bound to low affinity heparin sulfate binding sites. Receptor bound ^125 I-FGF-2 is recovered by treatment of the cells with 0.5% Triton X-100 in 0.1M sodium phosphate, pH 8, and counted in a γ-counter. Assays are conducted in duplicate.

FGF-2LA: human FGF-2 with loop residues 118-122 replaced by Lys-Lys-His-Ala-Glu-Lys-His from bovine FGF-1 (SEQ ID NO 16) (KKHAEKH; printed: Lys-Lys-His-Ala-Glu-Lys-His)
Induction of tube formation (capillary-like structures) [1]: comparable with the wildtype | Binding to FGFR2(IIIb), times less than that of FGF-7 or FGF-1 [2]: about 5 times | Competition binding curve to FGF receptor type 1 on NIH 3T3 cells [3]: identical to that for FGF-2 | NaCl concentration at elution from TSK-heparin column [4]: about 1.5 M | Capacity to compete with 125I-FGF-2 binding to FGF receptors on BHK cells [5]: similar

FGF-2LI: human FGF-2 with loop residues 118-122 replaced by Ala-Gln-Phe-Pro-Asn from human interleukin-1β (SEQ ID NO 15)
Induction of tube formation (capillary-like structures) [1]: much less than that by wild-type FGF-2 | Binding to soluble FGFR2(IIIb) (competition with 125I-FGF-7) ([2]; 200 ng/ml heparin): do not bind | Competition binding curve to FGF receptor type 1 on NIH 3T3 cells [3]: identical to that for FGF-2 | NaCl concentration at elution from TSK-heparin column [4]: about 1.5 M | Capacity to compete with 125I-FGF-2 binding to FGF receptors on BHK cells [5]: similar
